Assay [1] has as its system macrophages RAW 264.7. Kind of assay: NO release of LPS-induced macrophages RAW 264.7 (Griess reagent). As to conditions: 24 hours. Format: cell-based. As to the method:
24 hours later, the supernatant was collected, and the content of nitric oxide was determined with a Griess reagent (Sigma). After macrophages RAW 264.7 were scratched off the culture plates, proteins were extracted, and then the expression of nitric oxide synthase (iNOs), p65, and p50 (nuclear factor kappa B or NF-κB, transcription factor) was analyzed with the western blot method.
On the technique in general: The Griess reaction detects nitrite, a stable product of nitric oxide.

For assay [2], the system named is macrophages RAW 264.7. Kind of assay: Formation of osteoclasts from macrophages RAW 264.7 (RANKL, TRAP stain). Format: cell-based. As to conditions: Mus musculus, RAW264.7, 120 h, RANKL 50 ng/ml, 5 days, read-out: inhibition percentage. As to the method:
If macrophages RAW 264.7 are incubated in culture plates containing 50 ng/ml of differentiation inducer, RANKL, they usually differentiate into osteoclasts after 5 days. In Experiment H, various concentrations (0, 10, and 50 μM) of kinsenoside or 10 nM of estradiol were added into culture plates containing macrophages RAW 264.7, respectively, and the macrophages RAW 264.7 were incubated for 5 days. […] The number of osteoclasts was counted, and the inhibition percentage of the formation of osteoclasts was calculated with the following formula, and the result is shown in Table 11. Inhibition percentage=(the number of osteoclasts in the control group−the number of osteoclasts in the experimental group)/the number of osteoclasts in the control group×100%

The subject of another assay is ovariectomized ICR mice. Kind of assay: Osteoporosis of ovariectomized ICR mice. Format: in vivo. The conditions noted are these: for bone volume/tissue volume / the number of trabecula: femur, micro computed tomography; for bone volume/tissue volume / the number of trabecula / CTx / osteocalcin: 3 weeks; for CTx / osteocalcin: serum. On the procedure: First, the ovaries of ICR mice were removed. After 3 days, the ICR mice were administrated with various dosages (0, 100, and 300 mg/kg) of kinsenoside, respectively. Herein, the unit “mg/kg” means that the dosage (mg) required for each kilogram of the body weight of an animal. After 3 weeks, the ICR mice were sacrificed. ELISA was used to determine the content of osteocalcin and C-terminal cross-lined telopeptides of type I collagen (CTx) in serum. The reagents for determining osteocalcin and CTx were purchased from IDS Nordic A/S, Herlev, Danmarkids. The femurs of the sacrificed ICR mice were taken, and were photographed by a micro computed tomography (SkyScan 1076, Kontizh, Belgium). The computerized axial tomography is shown in FIG. 10, and the ratio of bone volume to tissue volume and the number of trabecula were analyzed with analysis software. Then, the femurs were decalcified and were frozen sectioned. Osteoclasts in the femurs were stained with a TRAP stain reagent.

For a further assay, the system named is NF-κB. Kind of assay: EMSA of NF-κB entering nuclei in RANKL-activated macrophages RAW 264.7. Format: cell-based. The conditions noted are these: kinsenoside 10, 25, 50 μM, RANKL 50 ng/ml, 60 minutes, FIG. 7B and 7C. The text has this:
EMSA (Electrophoresis Mobility Shift Assay) was used to observe the mechanism of the inhibition effect of kinsenoside on the formation of osteoclasts. It is known that RANKL may activate macrophages RAW 264.7 to make NF-κB enter nuclei to stimulate macrophages RAW 264.7 to differentiate into osteoclasts (see Wada T, Nakashima T, Hiroshi N, Penninger J M. 2006. RANKL-RANK signaling in osteoclastogenesis and bone disease. Trends Mol. Med. 12, 17-25).
The DNA sequences used in the EMSA assay are as follows:
The macrophages RAW 264.7 were incubated for 60 minutes, and then proteins in the nuclei were extracted to be analyzed with EMSA. Herein, the DNA sequences used in the EMSA assay are the same as the above experiment.

The test system of another assay is MC3T3-E1 cells. Kind of assay: Mineralization of MC3T3-E1 cells (Alizarin red-S). Format: cell-based. The conditions noted are these: 14 days. On the procedure:
50 μg/ml of Vitamin C and 10 μM of β-glycerophosphatase were added into culture plates containing MC3T3-E1 cells, and the MC3T3-E1 cells were incubated for 14 days. After 14 days, the mineralization of the MC3T3-E1 cells occurred, and led to the deposition of calcium. Alizarin red-S (Sigma) was used to measure the content of calcium (see Gregory C A, Gunn W G, Peister A, Prockop D J. 2004. An Alizarin red-based assay of mineralization by adherent cells in culture: comparison with cetylpyridinium chloride extract. Anal. Biochem. 329, 77-84).
50 μg/ml of Vitamin C and 10 μM of 0-glycerophosphatase were added into culture plates containing MC3T3-E1 cells, and various concentrations (0, 100, and 1,000 nM) of kinsenoside were added into the culture plates, respectively. The MC3T3-E1 cells were incubated for 14 days, and Alizarin red-S was used to measure the content of calcium.

Assay [3] concerns macrophages in the peritoneal cavity of ICR mice. Kind of assay: NO release of LPS-induced peritoneal macrophages (Griess reagent). The format is cell-based. As to conditions: LPS 1 μg/ml, 24 hours. As to the method: By means of peritoneal cavity injection, ICR mice (BioLASCO, Co., Ltd., Taiwan) were administrated with 5 wt % of thioglycollate (Becton Dickinson, Franklin Lakes, N.J.). […] Then, kinsenoside (10, 25, 50 μM) was added into the culture plates, and the macrophages were incubated for 30 minutes. Lipopolysaccharides (1 μg/ml, Sigma) were added into the plates to induce the inflammatory reaction of macrophages. 24 hours later, the supernatant was collected, and the content of nitric oxide was determined with a Griess reagent (Sigma).

`O=C1C[C@@H](OC2OC(CO)C(O)C(O)C2O)CO1` (stereo partly drawn) [kinsenoside, 3-(R)-3-β-D-glucopyranosyloxy-butanolide]: the “the concentration of NO” value was 15.5 ± 3.7 µM with macrophages RAW 264.7 [1] (kinsenoside 10 μM), 12.0 ± 3.1 µM in the assay with macrophages RAW 264.7 [1] (kinsenoside 50 μM) and 8.4 ± 1.7 µM with macrophages RAW 264.7 [1] (kinsenoside 100 μM). The inhibition at 10 µM with macrophages RAW 264.7 [2] (10 μM) worked out at 19 ± 9%. Also, the inhibition at 25 µM with macrophages RAW 264.7 [2] (25 μM) turned out to be 59 ± 8%. In addition, the inhibition at 50 µM in the assay on macrophages RAW 264.7 [2] (50 μM) turned out to be 71 ± 3%. Moreover, in the assay with ovariectomized ICR mice (compared to ICR mice that are not ovariectomized, FIG. 10), the “bone tissues of the femurs in micro computed tomography” value was “return to a normal state”. For the same compound, the bone volume/tissue volume turned out to be 19.9 ± 1.5 % in the assay with ovariectomized ICR mice (kinsenoside 100 mg/kg) and 21.2 ± 2.2 % in the assay with ovariectomized ICR mice (kinsenoside 300 mg/kg). The entries for the “the number of trabecula” value with ovariectomized ICR mice (kinsenoside 100 mg/kg) and in the assay with ovariectomized ICR mice (kinsenoside 300 mg/kg) were 12.2 ± 1.5 cm⁻¹ and 12.8 ± 1.5 cm⁻¹, respectively. The values for the CTx in the assay on ovariectomized ICR mice (kinsenoside 100 mg/kg) and with ovariectomized ICR mice (kinsenoside 300 mg/kg) were 29.7 ± 6.9 ng/mL and 27.5 ± 3.1 ng/mL, respectively. Besides, the results for the osteocalcin in the assay on ovariectomized ICR mice (kinsenoside 100 mg/kg) and in the assay with ovariectomized ICR mice (kinsenoside 300 mg/kg) were 191.2 ± 33.5 ng/mL and 351.8 ± 80.5 ng/mL, respectively. Moreover, in the assay on NF-κB, the “amount of NF-κB that enters into the nuclei” value was “reduces the amount of NF-κB that enters into the nuclei”. Further, the “Alizarin red-S” value in the assay with MC3T3-E1 cells (10 nM) was 137 ± 29%; in the assay with MC3T3-E1 cells (100 nM) it was 137 ± 27%; in the assay on MC3T3-E1 cells (1000 nM) it was 174 ± 42 %. For the same compound, the figures for the NO concentration in assay [3] (kinsenoside 10 μM), in assay [3] (kinsenoside 25 μM) and in assay [3] (kinsenoside 50 μM) were 26.7 ± 3.2 µM, 20.2 ± 2.1 µM and 16.2 ± 1.0 µM, respectively.

For orientation: inhibition means the change of the read-out against control, counted positive when it falls.
